The target in assay [1] is T1, Golgi α-D-mannosidase II (Homo sapiens, UniProt Q16706).
T1 construct: activity in extracts of fibroblasts from a patient; endogenous in cells; host or cells: fibroblasts from a mannosidosis patient (extract)
T1 sequence (Q16706 1-1144): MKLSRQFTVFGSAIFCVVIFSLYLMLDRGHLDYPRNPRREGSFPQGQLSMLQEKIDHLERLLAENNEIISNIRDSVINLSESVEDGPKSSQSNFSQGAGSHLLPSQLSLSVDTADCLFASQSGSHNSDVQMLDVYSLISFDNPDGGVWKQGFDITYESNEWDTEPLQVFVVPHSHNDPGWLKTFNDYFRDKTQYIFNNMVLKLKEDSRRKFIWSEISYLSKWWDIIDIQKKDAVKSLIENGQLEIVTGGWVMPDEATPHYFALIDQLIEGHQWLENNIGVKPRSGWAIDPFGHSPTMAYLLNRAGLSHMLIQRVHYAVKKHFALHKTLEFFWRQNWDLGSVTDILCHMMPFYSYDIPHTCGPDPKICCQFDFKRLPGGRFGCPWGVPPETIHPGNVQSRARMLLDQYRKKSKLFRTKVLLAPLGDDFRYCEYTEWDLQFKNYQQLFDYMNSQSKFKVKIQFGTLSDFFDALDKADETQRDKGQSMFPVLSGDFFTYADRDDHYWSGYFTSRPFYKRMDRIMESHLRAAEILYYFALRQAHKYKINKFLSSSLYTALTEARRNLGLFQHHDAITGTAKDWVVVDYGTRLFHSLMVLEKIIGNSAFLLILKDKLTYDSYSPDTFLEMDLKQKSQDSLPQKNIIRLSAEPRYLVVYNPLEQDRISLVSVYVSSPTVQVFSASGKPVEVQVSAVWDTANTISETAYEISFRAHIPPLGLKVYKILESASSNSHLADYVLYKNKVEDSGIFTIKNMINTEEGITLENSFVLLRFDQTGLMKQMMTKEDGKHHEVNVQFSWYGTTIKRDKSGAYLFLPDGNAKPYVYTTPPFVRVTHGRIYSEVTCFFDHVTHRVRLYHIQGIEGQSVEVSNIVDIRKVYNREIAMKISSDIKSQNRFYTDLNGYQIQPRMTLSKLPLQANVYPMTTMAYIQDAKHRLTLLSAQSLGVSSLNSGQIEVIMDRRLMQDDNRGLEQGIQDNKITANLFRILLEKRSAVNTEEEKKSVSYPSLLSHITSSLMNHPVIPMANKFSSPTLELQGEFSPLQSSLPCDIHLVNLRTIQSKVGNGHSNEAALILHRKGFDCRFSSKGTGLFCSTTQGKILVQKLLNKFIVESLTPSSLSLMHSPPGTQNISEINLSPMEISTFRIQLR
Kind of assay: Inhibition of Golgi α-D-mannosidase II in extracts of fibroblasts from a mannosidosis patient. The assay is classed as biochemical. The conditions noted are these: for inhibition at 1000 µM: 1 mM inhibitor, pH 5.75, mean of 2-4 determinations. As for the experimental part:
(§1) The glycosidase activities in an extract of normal human liver were assayed by using the appropriate fluorigenic 4-methylumbelliferyl glycoside substrate (Koch-Light, Haverhill, Suffolk, U.K.) with a concentration of 0.5 mM at the optimal pH of each enzyme [Burditt et al., Clin. Chim. Acta 140, 201-209 (1980)]. Human liver acidic (lysomal) and neutral (cystosolic) α-D-mannosidases were assayed similarly at their pH-optima, of 4.0 and 6.5, respectively, after separation by affinity chromatography on concanavalin A-Sepharose® (Pharmacia Ltd, Milton Keynes, Bucks, U.K.) [Phillips et al., Biochem. J. 153, 579-587 (1976)]. The residual intermediate (Golgi) α-mannosidase II activity in extracts of fibroblasts from a patient with the lysosomal storage disease, mannosidosis, was assayed at pH 5.75 using the synthetic substrate (Burditt et al, Ibid.). The specificity of the inhibitors was determined by assaying the glycosidases in the presence and absence of a 1 mM solution of each compound. The nature of the inhibition and the value of Ki were determined using the Dixon graphical procedure.
(§2) Enzymic activities were measured in the presence and absence of 1 mM inhibitor. Inhibition (%) was calculated as the fraction of activity lost in the presence of inhibitor. The values are means of two to four independent determinations.

Assay [2] deals with T2, β-D-mannosidase (Homo sapiens, UniProt O00462).
T2 construct: The glycosidase activities in an extract of normal human liver were assayed; from tissue; host or cells: post mortem human liver, 37,000 g supernatant
T2 sequence (O00462 18-879): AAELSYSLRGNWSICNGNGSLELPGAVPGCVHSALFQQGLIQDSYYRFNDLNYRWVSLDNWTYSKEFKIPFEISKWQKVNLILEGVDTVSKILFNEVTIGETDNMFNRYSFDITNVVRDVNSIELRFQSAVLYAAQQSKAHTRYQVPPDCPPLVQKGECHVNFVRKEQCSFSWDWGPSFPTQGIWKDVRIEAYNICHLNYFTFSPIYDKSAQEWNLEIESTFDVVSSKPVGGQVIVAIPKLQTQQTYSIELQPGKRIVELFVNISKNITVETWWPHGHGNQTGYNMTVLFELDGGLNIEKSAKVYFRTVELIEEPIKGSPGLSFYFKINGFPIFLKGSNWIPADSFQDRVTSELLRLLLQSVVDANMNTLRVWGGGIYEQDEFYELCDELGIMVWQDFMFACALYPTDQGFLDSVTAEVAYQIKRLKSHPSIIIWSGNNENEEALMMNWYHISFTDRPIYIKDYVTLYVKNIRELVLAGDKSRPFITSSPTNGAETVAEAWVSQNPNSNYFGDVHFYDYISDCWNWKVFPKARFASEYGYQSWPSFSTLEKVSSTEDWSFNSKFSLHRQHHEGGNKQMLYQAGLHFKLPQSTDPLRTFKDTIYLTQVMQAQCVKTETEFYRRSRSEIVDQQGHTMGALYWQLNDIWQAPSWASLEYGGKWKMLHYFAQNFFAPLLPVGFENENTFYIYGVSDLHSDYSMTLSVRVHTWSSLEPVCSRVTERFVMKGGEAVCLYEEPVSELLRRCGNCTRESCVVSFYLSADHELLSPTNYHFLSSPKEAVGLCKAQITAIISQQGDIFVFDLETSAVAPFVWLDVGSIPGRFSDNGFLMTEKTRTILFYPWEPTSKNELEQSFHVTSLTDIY
Description: Inhibition of β-D-mannosidase in human liver extract. Format: biochemical. The conditions noted are these: 1 mM inhibitor; 0.5 mM substrate; optimal pH; mean of 2-4 determinations. As for the experimental part: Post mortem human liver, which had been stored at -20° C. until required was homogenized in deionized water (50%, w/v) in a Potter-Elvehjem homogenizer and then centrifuged at 37,000 g for 30 min in an MSE 18 centrifuge. The resultant supernatant was used as the source of enzymic activities.
as §1, §2

On to `CN1C[C@@H](O)[C@@H](O)[C@@H]1[C@@H](O)CO` [N-methyl DIA, N-methyl-1,4-dideoxy-1,4-imino-L-allitol], for which the inhibition at 1000 µM in assay [1] was 33%; in assay [2], 4%.

On to `OC[C@H](O)[C@H]1[C@H](O)[C@H](O)CN1Cc1ccccc1` [N-benzyl DIA, N-benzyl-1,4-dideoxy-1,4-imino-L-allitol], for which the inhibition at 1000 µM in assay [1] and in assay [2] was 0% in each case.

Turning to `OC[C@H](O)[C@@H]1NC[C@@H](O)[C@H]1O` [DIA, 1,4-dideoxy-1,4-imino-L-allitol], the “inhibition of α-D-mannosidase II (in words)” value in assay [1] was “potent inhibitor”. The inhibition at 1000 µM in assay [1] was 95%; in assay [2] it was 14%.

(Values after US4894388A, “Glycosidase inhibitors and use thereof” (priority 1988, dated 1990).)
